Results taken from patent US9695155B2, “Herbicidal substituted pyrimidinyloxy benzene compounds” (E. I. DU PONT DE NEMOURS AND COMPANY, priority 2013, dated 2017).

Legend:
Russian thistle = assay: Test D postemergence; assay type: in vivo, Salsola kali
Excerpt: Seeds of plant species selected from bluegrass (annual bluegrass, Poa annua), blackgrass (Alopecurus myosuroides), canarygrass (littleseed canarygrass, Phalaris minor), chickweed (common chickweed, Stellaria media), galium (catchweed bedstraw, Galium aparine), bromegrass, downy (downy bromegrass, Bromus tectorum), field poppy (Papaver rhoeas), field violet (Viola arvensis), green foxtail (Setaria viridis), deadnettle (henbit deadnettle, Lamium amplexicaule), Italian ryegrass (Lolium multiflorum), kochia (Kochia scoparia), lambsquarters (Chenopodium album), oilseed rape (Brassica napus), pigweed (Amaranthus retroflexus), chamomile (scentless chamomile, Matricaria inodora), Russian thistle (Salsola kali), speedwell (bird's-eye speedwell, Veronica persica), spring barley (Hordeum vulgare), spring wheat (Triticum aestivum), wild buckwheat (Polygonum convolvulus), wild mustard (Sinapis arvensis), wild oat (Avena fatua), wild radish (Raphanus raphanistrum), windgrass (Apera spica-venti), winter barley (Hordeum vulgare), and winter wheat (Triticum aestivum) were planted into a silt loam soil and treated preemergence with test chemicals formulated in a non-phytotoxic solvent mixture which included a surfactant.
At the same time, these species were planted in pots containing Redi-Earth® planting medium (Scotts Company, 14111 Scottslawn Road, Marysville, Ohio 43041) comprising spaghnum peat moss, vermiculite, wetting agent and starter nutrients and treated with postemergence applications of the test chemicals formulated in the same manner. Plants ranged in height from 2 to 18 cm (1- to 4-leaf stage). Treated plants and controls were maintained in a controlled growth environment for 7 to 21 days after which time all species were compared to controls and visually evaluated. Plant response ratings, summarized in Table D, are based on a scale of 0 to 100 where 0 is no effect and 100 is complete control. A dash (-) response means no test result.

[1] = test system: waterhemp_RES1 (ALS & Triazine resistant common waterhemp); assay: Test E postemergence; assay type: in vivo, Amaranthus rudis
Outline: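 Response was scored visually on a 0-100 scale (100 = complete control) versus controls after 14 to 21 days in the greenhouse. Test chemicals, formulated with surfactant in a non-phytotoxic solvent mixture, had been applied preemergence to seeds in silt loam soil or postemergence to 1- to 4-leaf plants in potting medium.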

foxtail, green [2] = assay: Test C postemergence; assay type: in vivo, Setaria viridis; conditions: for Plant response rating (0 to 100), Foxtail, Green: postemergence; for Plant response rating, Foxtail, Green: Postemergence, scale 0 to 100 (0 no effect, 100 complete control)
Excerpt: (§1) Seeds of plant species selected from blackgrass (Alopecurus myosuroides), Italian ryegrass (Lolium multiflorum), wheat, winter (winter wheat, Triticum aestivum), galium (catchweed bedstraw, Galium aparine), corn (Zea mays), large (Lg) crabgrass (Digitaria sanguinalis), giant foxtail (Setaria faberii), johnsongrass (Sorghum halepense), lambsquarters (Chenopodium album), morningglory (Ipomoea coccinea), yellow nutsedge (Cyperus esculentus), pigweed (Amaranthus retroflexus), ragweed (common ragweed, Ambrosia elatior), soybean (Glycine max), barnyardgrass (Echinochloa crus-galli), oilseed rape (Brassica napus), waterhemp (common waterhemp, Amaranthus rudis), kochia (Kochia scoparia), wild oat (Avena fatua), surinam grass (Brachiaria decumbens), foxtail, green (green foxtail, Setaria viridis), goosegrass (Eleusine indica), bromegrass, downy (downy bromegrass, Bromus tectorum), nightshade (eastern black nightshade, Solanum ptycanthum), cocklebur (common cocklebur, Xanthium strumarium), cupgrass, woolly (woolly cupgrass, Eriochloa villosa), bermudagrass (Cynodon dactylon), sunflower, (common oilseed sunflower, Helianthus annuus), Russian thistle (Salsola kali), and velvetleaf (Abutilon theophrasti) were planted into a blend of loam soil and sand and treated preemergence with test chemicals formulated in a non-phytotoxic solvent mixture which included a surfactant.
(§2) At the same time, plants selected from these crop and weed species and also barley, winter (winter barley, Hordeum vulgare), windgrass (Apera spica-venti), chickweed (common chickweed, Stellaria media), deadnettle (henbit deadnettle, Lamium amplexicaule), and canarygrass (littleseed canarygrass, Phalaris minor) were planted in pots containing Redi-Earth® planting medium (Scotts Company, 14111 Scottslawn Road, Marysville, Ohio 43041) comprising spaghnum peat moss, vermiculite, wetting agent and starter nutrients and treated with postemergence applications of test chemicals formulated in the same manner. Plants ranged in height from 2 to 18 cm (1- to 4-leaf stage) for postemergence treatments. Treated plants and controls were maintained in a greenhouse for 13 to 15 days, after which time all species were compared to controls and visually evaluated. Plant response ratings, summarized in Table C, are based on a scale of 0 to 100 where 0 is no effect and 100 is complete control. A dash (-) response means no test result.

bermudagrass = assay: Test C postemergence; assay type: in vivo, Cynodon dactylon; conditions: for Plant response rating (0 to 100), Bermudagrass: postemergence; for Plant response rating, Bermudagrass: Postemergence, scale 0 to 100 (0 no effect, 100 complete control)
Excerpt: as §1, §2

windgrass = assay: Test C postemergence; assay type: in vivo, Apera spica-venti; conditions: for Plant response rating (0 to 100), Windgrass: postemergence; for Plant response rating, Windgrass: Postemergence, scale 0 to 100 (0 no effect, 100 complete control)
Excerpt: as §1, §2

foxtail, green [3] = assay: Test C preemergence; assay type: in vivo, Setaria viridis; conditions: for Foxtail, Green plant response rating: preemergence, scale 0 (no effect) to 100 (complete control); for Plant response rating, Foxtail, Green: Preemergence, 31 g ai/ha, scale 0 to 100, 0 no effect, 100 complete control
Excerpt: as §1, §2

[4] = 62 g ai/ha, scale 0 to 100 (0 no effect, 100 complete control)
[5] = 125 g ai/ha, scale 0 to 100 (0 no effect, 100 complete control)
[6] = 250 g ai/ha, scale 0 to 100 (0 no effect, 100 complete control)
[7] = 31 g ai/ha, scale 0 to 100 (0 no effect, 100 complete control)
[8] = Postemergence, 31 g ai/ha, scale 0 to 100
[9] = Postemergence, 62 g ai/ha, scale 0 to 100
[10] = Postemergence, 125 g ai/ha, scale 0 to 100
[11] = Postemergence, 250 g ai/ha, scale 0 to 100
[12] = postemergence, 16 g ai/ha, scale 0 to 100, 0 no effect, 100 complete control
[13] = postemergence, 8 g ai/ha, scale 0 to 100, 0 no effect, 100 complete control

Compound | Plant response rating, Russian Thistle (Russian thistle; [4]) | Plant response rating, Russian Thistle (Russian thistle; [5]) | Plant response rating, Russian Thistle (Russian thistle; [6]) | Plant response rating, Russian Thistle (Russian thistle; 16 g ai/ha, scale 0-100) | Plant response rating, Russian Thistle (Russian thistle; [7]) | Plant response rating, Waterhemp_RES1 [1, 8] | Plant response rating, Waterhemp_RES1 [1, 9] | Plant response rating, Waterhemp_RES1 [1, 10] | Plant response rating, Waterhemp_RES1 [1, 11] | Plant response rating, Waterhemp_RES1 [1, 12] | Plant response rating (0 to 100), Foxtail, Green (foxtail, green [2]; 125 g ai/ha) | Plant response rating (0 to 100), Foxtail, Green (foxtail, green [2]; 250 g ai/ha) | Plant response rating, Foxtail, Green (foxtail, green [2]; 31 g ai/ha, 13 to 15 days) | Plant response rating (0 to 100), Bermudagrass (bermudagrass; 125 g ai/ha) | Plant response rating (0 to 100), Bermudagrass (bermudagrass; 250 g ai/ha) | Plant response rating, Bermudagrass (bermudagrass; 31 g ai/ha, 13 to 15 days) | Plant response rating, Bermudagrass (bermudagrass; 62 g ai/ha) | Plant response rating (0 to 100), Windgrass (windgrass; 125 g ai/ha) | Plant response rating (0 to 100), Windgrass (windgrass; 250 g ai/ha) | Plant response rating, Windgrass (windgrass; 31 g ai/ha, 13 to 15 days) | also measured
N#Cc1cccc(Oc2ncc(Cl)cn2)c1-n1cc(-n2ccc(C(F)(F)F)n2)cn1 [Compound 284] | 75 | 85 | 95 |  |  |  |  |  |  |  |  |  |  |  |  |  |  |  |  |  | Plant response rating, Russian Thistle (Russian thistle; 31 g ai/ha, scale 0-100): 65
Clc1cnc(Oc2ccccc2-n2cc(Cl)cn2)nc1 [Compound 3] | 10 | 10 | 20 | 0 | 10 |  |  |  |  |  |  |  |  |  |  |  |  |  |  |  | 
FC(F)(F)c1cnn(-c2ccccc2Oc2ncc(Cl)cn2)c1 [Compound 16] |  |  |  |  |  | 50 | 60 | 75 | 95 | 50 | 30 | 100 | 10 | 50 | 55 | 10 | 15 | 50 | 50 | 30 | Plant response rating, Foxtail, Green (foxtail, green [2]; 62 g ai/ha): 30; Plant response rating, Windgrass (windgrass; 62 g ai/ha): 40; Foxtail, Green plant response rating (foxtail, green [3]; 62 g ai/ha): 90; Foxtail, Green plant response rating (foxtail, green [3]; 125 g ai/ha): 90; Foxtail, Green plant response rating (foxtail, green [3]; 250 g ai/ha): 90; Plant response rating, Foxtail, Green (foxtail, green [3]): 90
N#Cc1cccc(Oc2ncc(Br)cn2)c1-n1cc(C(F)(F)F)cn1 [Compound 59, 3-[(5-bromo-2-pyrimidinyl)oxy]-2-[4-(trifluoromethyl)-1H-pyrazol-1-yl]benzonitrile] |  |  |  |  |  | 80 | 90 | 95 | 100 | 70 |  |  |  |  |  |  |  |  |  |  | 
Clc1cnc(Oc2cccc(Br)c2-n2cc(Br)cn2)nc1 [Compound 65] |  |  |  |  |  | 85 | 90 | 98 |  | 70 |  |  |  |  |  |  |  |  |  |  | Plant response rating, Waterhemp_RES1 [1, 13]: 65
N#Cc1cccc(Oc2ncc(Cl)cn2)c1-n1cc(C(F)(F)F)cn1 [Compound 58, 3-[(5-chloro-2-pyrimidinyl)oxy]-2-[4-(trifluoromethyl)-1H-pyrazol-1-yl]benzonitrile] |  |  |  |  |  | 80 | 95 | 95 | 100 | 80 |  |  |  |  |  |  |  |  |  |  | 
Clc1cnc(Oc2ccccc2-n2cc(Br)cn2)nc1 [Compound 7, 2-[2-(4-bromo-1H-pyrazol-1-yl)phenoxy]-5-chloropyrimidine] | 30 | 30 | 70 | 0 | 0 | 80 | 95 | 90 |  | 70 | 50 | 98 | 0 | 15 | 70 | 0 | 5 | 55 | 80 | 10 | Plant response rating, Waterhemp_RES1 [1, 13]: 65; Plant response rating, Windgrass (windgrass; 62 g ai/ha): 55; Foxtail, Green plant response rating (foxtail, green [3]; 62 g ai/ha): 90; Foxtail, Green plant response rating (foxtail, green [3]; 125 g ai/ha): 90; Foxtail, Green plant response rating (foxtail, green [3]; 250 g ai/ha): 95; Plant response rating, Foxtail, Green (foxtail, green [3]): 50
Fc1cnc(Oc2ccccc2-n2cc(Br)cn2)nc1 [Compound 10, 2-[2-(4-bromo-1H-pyrazol-1-yl)phenoxy]-5-fluoropyrimidine] |  |  |  |  |  |  |  |  |  |  | 0 | 30 | 0 | 5 | 50 | 0 | 5 | 50 | 65 | 10 | Plant response rating, Foxtail, Green (foxtail, green [2]; 62 g ai/ha): 0; Plant response rating, Windgrass (windgrass; 62 g ai/ha): 10
FC(F)(F)c1cnn(-c2ccccc2Oc2ncc(Br)cn2)c1 [Compound 18, 5-bromo-2-[2-[4-(trifluoromethyl)-1H-pyrazol-1-yl]phenoxy]pyrimidine] | 50 | 60 | 100 | 10 | 5 |  |  |  |  |  |  |  |  |  |  |  |  |  |  |  | Foxtail, Green plant response rating (foxtail, green [3]; 62 g ai/ha): 90; Foxtail, Green plant response rating (foxtail, green [3]; 125 g ai/ha): 90; Foxtail, Green plant response rating (foxtail, green [3]; 250 g ai/ha): 90; Plant response rating, Foxtail, Green (foxtail, green [3]): 85
